Data as given in patent US20230278972A1, “SUBSTITUTED HALOALKYL SULFONANILIDE HERBICIDES” (FMC Corporation, priority 2020, published 2023).

Experiments:
Type in all cases: in vivo
[1] = tested on: barnyardgrass (Echinochloa crus-galli); experiment: Test A postemergence, barnyardgrass; settings: Postemergence, 0 to 100 scale (0 no effect, 100 complete control); for Plant response rating, Barnyardgrass: 125 g ai/ha, visual injury approx. 10 days; for Barnyardgrass plant response rating: 500 g ai/ha, visual injury vs untreated controls after approx. 10 days
Summary of the method: (§1)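 Greenhouse pot test in a loam–sand blend; compounds delivered in a non-phytotoxic solvent carrying a surfactant, applied either as a directed spray to soil at seeding or over seedlings 2 to 10 cm high with one to two leaves.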

[2] = tested on: ragweed (common ragweed, Ambrosia artemisiifolia); experiment: Test A preemergence, ragweed; settings: Preemergence; for Ragweed plant response rating: 125 g ai/ha, visual injury on 0 to 100 scale (0 no effect, 100 complete control), approximately 10 days; for Plant response rating, Ragweed: 500 g ai/ha, 0 to 100 scale (0 no effect, 100 complete control)
Summary of the method: (§2)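 Seeds are sown in loam mixed with sand and sprayed on the soil surface right after planting for the preemergence test. Postemergence pots are sprayed once seedlings reach 2 to 10 cm at the one- to two-leaf stage. The same surfactant-containing, non-phytotoxic solvent formulation serves both.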

[3] = tested on: kochia (Bassia scoparia); experiment: Test A preemergence, kochia; settings: Preemergence; for Kochia plant response rating: 125 g ai/ha, visual injury on 0 to 100 scale (0 no effect, 100 complete control), approximately 10 days; for Plant response rating, Kochia: 500 g ai/ha, 0 to 100 scale (0 no effect, 100 complete control)
Summary of the method: as §2

[4] = tested on: wheat (Triticum aestivum); experiment: Test A postemergence, wheat; settings: Postemergence, 0 to 100 scale (0 no effect, 100 complete control); for Plant response rating, Wheat: 125 g ai/ha, visual injury approx. 10 days; for Wheat plant response rating: 500 g ai/ha, visual injury vs untreated controls after approx. 10 days
Summary of the method: as §1

[5] = tested on: barnyardgrass (Echinochloa crus-galli); experiment: Test A preemergence, barnyardgrass; settings: Preemergence; for Barnyardgrass plant response rating: 125 g ai/ha, visual injury on 0 to 100 scale (0 no effect, 100 complete control), approximately 10 days; for Plant response rating, Barnyardgrass: 500 g ai/ha, 0 to 100 scale (0 no effect, 100 complete control)
Summary of the method: as §2

[6] = tested on: ragweed (common ragweed, Ambrosia artemisiifolia); experiment: Test A postemergence, ragweed; settings: Postemergence, 0 to 100 scale (0 no effect, 100 complete control); for Plant response rating, Ragweed: 125 g ai/ha, visual injury approx. 10 days; for Ragweed plant response rating: 500 g ai/ha, visual injury vs untreated controls after approx. 10 days
Summary of the method: as §2

[7] = tested on: Foxtail, Giant (giant foxtail, Setaria faberi); experiment: Test A preemergence, Foxtail, Giant; settings: Preemergence; for Foxtail, Giant plant response rating: 125 g ai/ha, visual injury on 0 to 100 scale (0 no effect, 100 complete control), approximately 10 days; for Plant response rating, Foxtail, Giant: 500 g ai/ha, 0 to 100 scale (0 no effect, 100 complete control)
Summary of the method: as §2

[8] = tested on: blackgrass (Alopecurus myosuroides); experiment: Test A postemergence, blackgrass; settings: Postemergence, 0 to 100 scale (0 no effect, 100 complete control); for Plant response rating, Blackgrass: 125 g ai/ha, visual injury approx. 10 days; for Blackgrass plant response rating: 500 g ai/ha, visual injury vs untreated controls after approx. 10 days
Summary of the method: as §2

[9] = tested on: galium (catchweed bedstraw, Galium aparine); experiment: Test A postemergence, galium; settings: Postemergence, 0 to 100 scale (0 no effect, 100 complete control); for Plant response rating, Galium: 125 g ai/ha, visual injury approx. 10 days; for Galium plant response rating: 500 g ai/ha, visual injury vs untreated controls after approx. 10 days
Summary of the method: as §1

[10] = tested on: Foxtail, Giant (giant foxtail, Setaria faberi); experiment: Test A postemergence, Foxtail, Giant; settings: Postemergence, 0 to 100 scale (0 no effect, 100 complete control); for Plant response rating, Foxtail, Giant: 125 g ai/ha, visual injury approx. 10 days; for Foxtail, Giant plant response rating: 500 g ai/ha, visual injury vs untreated controls after approx. 10 days
Summary of the method: as §2

[11] = tested on: pigweed (Amaranthus retroflexus); experiment: Test A postemergence, pigweed; settings: Postemergence, 0 to 100 scale (0 no effect, 100 complete control); for Plant response rating, Pigweed: 125 g ai/ha, visual injury approx. 10 days; for Pigweed plant response rating: 500 g ai/ha, visual injury vs untreated controls after approx. 10 days
Summary of the method: as §2

[12] = tested on: pigweed (Amaranthus retroflexus); experiment: Test A preemergence, pigweed; settings: for Pigweed plant response rating: 125 g ai/ha, visual injury on 0 to 100 scale (0 no effect, 100 complete control), approximately 10 days; for Plant response rating, Pigweed: 500 g ai/ha, 0 to 100 scale (0 no effect, 100 complete control)
Summary of the method: as §1

[13] = tested on: kochia (Bassia scoparia); experiment: Test A postemergence, kochia; settings: Postemergence, 0 to 100 scale (0 no effect, 100 complete control); for Plant response rating, Kochia: 125 g ai/ha, visual injury approx. 10 days; for Kochia plant response rating: 500 g ai/ha, visual injury vs untreated controls after approx. 10 days
Summary of the method: as §2

[14] = tested on: Ryegrass, Italian (Italian ryegrass, Lolium multiflorum); experiment: Test A preemergence, Ryegrass, Italian; settings: Preemergence; for Ryegrass, Italian plant response rating: 125 g ai/ha, visual injury on 0 to 100 scale (0 no effect, 100 complete control), approximately 10 days; for Plant response rating, Ryegrass, Italian: 500 g ai/ha, 0 to 100 scale (0 no effect, 100 complete control)
Summary of the method: as §2

[15] = tested on: corn (Zea mays); experiment: Test A postemergence, corn; settings: Postemergence, 0 to 100 scale (0 no effect, 100 complete control); for Plant response rating, Corn: 125 g ai/ha, visual injury approx. 10 days; for Corn plant response rating: 500 g ai/ha, visual injury vs untreated controls after approx. 10 days
Summary of the method: as §2

[16] = tested on: Ryegrass, Italian (Italian ryegrass, Lolium multiflorum); experiment: Test A postemergence, Ryegrass, Italian; settings: Postemergence, 0 to 100 scale (0 no effect, 100 complete control); for Plant response rating, Ryegrass, Italian: 125 g ai/ha, visual injury approx. 10 days; for Ryegrass, Italian plant response rating: 500 g ai/ha, visual injury vs untreated controls after approx. 10 days
Summary of the method: as §2

SMILES | Plant response rating, Barnyardgrass [1] | Barnyardgrass plant response rating [1] | Ragweed plant response rating [2] | Plant response rating, Ragweed [2] | Kochia plant response rating [3] | Plant response rating, Kochia [3] | Plant response rating, Wheat [4] | Wheat plant response rating [4] | Barnyardgrass plant response rating [5] | Plant response rating, Barnyardgrass [5] | Plant response rating, Ragweed [6] | Ragweed plant response rating [6] | Foxtail, Giant plant response rating [7] | Plant response rating, Foxtail, Giant [7] | Plant response rating, Blackgrass [8] | Blackgrass plant response rating [8] | Plant response rating, Galium [9] | Galium plant response rating [9] | Plant response rating, Foxtail, Giant [10] | Foxtail, Giant plant response rating [10] | also measured
Cc1cc(C)c(-c2cc(C(F)(F)F)nn(C)c2=O)cc1NS(=O)(=O)C(F)(F)F [Compound 71] | 0 | 80 | 10 | 60 | 80 | 40 | 40 | 70 | 0 | 100 | 0 | 0 | 80 | 100 | 0 | 70 | 50 | 80 | 0 | 90 | Plant response rating, Pigweed [11]: 0; Pigweed plant response rating [11]: 60; Pigweed plant response rating [12]: 40; Plant response rating, Pigweed [12]: 60; Plant response rating, Kochia [13]: 20; Kochia plant response rating [13]: 40; Ryegrass, Italian plant response rating [14]: 70; Plant response rating, Ryegrass, Italian [14]: 100; Plant response rating, Corn [15]: 0; Corn plant response rating [15]: 30; Plant response rating, Ryegrass, Italian [16]: 70; Ryegrass, Italian plant response rating [16]: 80
Cc1cc(C)c(C2=NOC3CCCCC23)cc1NS(=O)(=O)C(F)(F)F (stereo not drawn) [Compound 123] | 90 | 90 | 50 | 80 | 40 | 80 | 50 | 60 | 100 | 100 | 50 | 70 | 100 | 100 | 20 | 50 | 80 | 90 | 30 | 80 | Plant response rating, Pigweed [11]: 60; Pigweed plant response rating [11]: 80; Pigweed plant response rating [12]: 90; Plant response rating, Pigweed [12]: 100; Plant response rating, Kochia [13]: 50; Kochia plant response rating [13]: 70; Ryegrass, Italian plant response rating [14]: 90; Plant response rating, Ryegrass, Italian [14]: 100; Plant response rating, Corn [15]: 10; Corn plant response rating [15]: 70; Plant response rating, Ryegrass, Italian [16]: 50; Ryegrass, Italian plant response rating [16]: 50
COC1CCCN(C(=O)c2cc(N(S(=O)(=O)C(F)(F)F)S(=O)(=O)C(F)(F)F)c(C)cc2C)C1 (stereo not drawn) [Compound 119] | 40 | 90 | 80 | 100 | 50 | 100 | 10 | 70 | 100 | 100 | 70 | 90 | 100 | 100 | 0 | 40 | 80 | 90 | 30 | 80 | Plant response rating, Pigweed [11]: 40; Pigweed plant response rating [11]: 70; Pigweed plant response rating [12]: 100; Plant response rating, Pigweed [12]: 100; Plant response rating, Kochia [13]: 20; Kochia plant response rating [13]: 60; Ryegrass, Italian plant response rating [14]: 80; Plant response rating, Ryegrass, Italian [14]: 100; Plant response rating, Corn [15]: 10; Corn plant response rating [15]: 30; Plant response rating, Ryegrass, Italian [16]: 20; Ryegrass, Italian plant response rating [16]: 90
